Among the test systems are MDA-MB-231 breast; HL-60(TB) leukemia; U251 CNS; M19-MEL melanoma; OVCAR-8 ovarian; RXF 393 renal; IGROV1 ovarian; DMS 273 small cell lung; NCI-H23 lung; LOX IMVI melanoma.
Holding throughout (assay): growth of human tumour cells (NCI), 48 h

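Five concentrations, 48 hours, 96-well plates. The concentration for full growth arrest is given as TGI.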 Where only a bound is given, the exact number is not on record here.

Regarding `C=C1[C@@H](C)[C@H]2[C@H](Cc3ccccc3)NC(=O)[C@]23OC(=O)/C=C/[C@H](O)CCC[C@@H](C)C/C=C/[C@H]3[C@@H]1O`, the TGI in the experiment with MDA-MB-231 breast is > 100 µM; in the experiment on HL-60(TB) leukemia, 90 µM; with U251 CNS, 57.8 µM; in the experiment with M19-MEL melanoma it was > 100 µM; in the experiment on OVCAR-8 ovarian, 66.4 µM; in the experiment with RXF 393 renal, 27.9 µM. Also, the TGI is 78.9 µM with IGROV1 ovarian, > 97 µM in the experiment on DMS 273 small cell lung, 89.7 µM in the experiment on NCI-H23 lung and 39.6 µM in the experiment on LOX IMVI melanoma.
Consider `C/C(O)=C(\N=O)C(=O)NCCc1ccccc1`, for which the TGI in the experiment on HL-60(TB) leukemia, in the experiment on U251 CNS, in the experiment with M19-MEL melanoma, in the experiment on OVCAR-8 ovarian, with RXF 393 renal and with IGROV1 ovarian was > 100 µM throughout. Further, the TGI with DMS 273 small cell lung is > 93.4 µM; with NCI-H23 lung it was > 100 µM; in the experiment on LOX IMVI melanoma, > 58 µM.
For the molecule `O=C(/C=C/c1ccc(OCC(=O)N2CCN(c3ccccc3)CC2)cc1)c1ccc(Cl)cc1`, the TGI was > 86.3 µM with MDA-MB-231 breast; > 100 µM in the experiment on HL-60(TB) leukemia; 46 µM in the experiment with U251 CNS; > 100 µM with M19-MEL melanoma; > 100 µM with OVCAR-8 ovarian; 55.1 µM in the experiment with RXF 393 renal. Also, the TGI in the experiment on IGROV1 ovarian, in the experiment on DMS 273 small cell lung, in the experiment on NCI-H23 lung and in the experiment with LOX IMVI melanoma was > 100 µM in each case.
In the case of `N#CC(NNC(=O)c1ccccc1O)c1ccc(O)cc1` (centres undefined), the TGI in the experiment on HL-60(TB) leukemia was 74.9 µM; with U251 CNS, > 100 µM; in the experiment on M19-MEL melanoma it was > 100 µM; with OVCAR-8 ovarian, > 100 µM; in the experiment with RXF 393 renal, 12.2 µM; in the experiment with IGROV1 ovarian, > 100 µM. The TGI with DMS 273 small cell lung, in the experiment with NCI-H23 lung and with LOX IMVI melanoma was > 100 µM throughout.
On to `Cc1ccc(NC(=O)CC2C(=O)Nc3ccccc3S2=O)cc1C` (centres undefined), for which the TGI in the experiment with HL-60(TB) leukemia was > 100 µM; in the experiment with U251 CNS, > 100 µM; in the experiment with M19-MEL melanoma, > 100 µM; with OVCAR-8 ovarian, > 100 µM; in the experiment on RXF 393 renal, 41.8 µM; with IGROV1 ovarian, > 100 µM. The TGI in the experiment with DMS 273 small cell lung, with NCI-H23 lung and with LOX IMVI melanoma was > 100 µM in each case.
Regarding `COC(=O)C(CCS(=O)(=O)CC(=O)C(=O)Nc1cccc(C(C)=O)c1)C(=O)OC`, the TGI in the experiment on HL-60(TB) leukemia, in the experiment with U251 CNS, in the experiment with M19-MEL melanoma, with OVCAR-8 ovarian, with RXF 393 renal and in the experiment on IGROV1 ovarian was > 100 µM each time. The TGI in the experiment with DMS 273 small cell lung, in the experiment on NCI-H23 lung and in the experiment with LOX IMVI melanoma was > 100 µM in each case.
With `CCOC(=O)CC(=O)Sc1ccccc1`, the TGI in the experiment on HL-60(TB) leukemia amounted to 48.6 µM; in the experiment on U251 CNS it was 40.2 µM; with M19-MEL melanoma, 48.4 µM; in the experiment on OVCAR-8 ovarian, 34.6 µM; with RXF 393 renal, 25.9 µM; in the experiment with IGROV1 ovarian, 26 µM. Besides, the TGI is 46 µM with DMS 273 small cell lung, 70.7 µM in the experiment on NCI-H23 lung and 26.8 µM in the experiment on LOX IMVI melanoma.
`[N-]=[N+]=NC(c1cn(C2CC(O)C(CO)O2)c(=O)[nH]c1=O)C(Br)I` (centres undefined): the TGI in the experiment with HL-60(TB) leukemia, in the experiment on U251 CNS, with M19-MEL melanoma, with OVCAR-8 ovarian, with RXF 393 renal and in the experiment on IGROV1 ovarian was > 100 µM in each case. Moreover, the TGI with DMS 273 small cell lung, in the experiment on NCI-H23 lung and with LOX IMVI melanoma was > 100 µM throughout.

The values above are taken from PubChem BioAssay (NCI).
